Key:
H1437 = assay: MTT assay, IC50 of CDDP in NSCLC cell lines; type: cell-based, Human
Protocol: (§1) Cell viability and cell growth curve assay were determined by MTT assay and trypan blue exclusion assay, respectively as described previously (Kirino, Y. & Mourelatos, Z. Mouse Piwi-interacting RNAs are 2′-O-methylated at their 3′ termini Nat Struct Mol Biol. 14, 347-348 (2007)). BrieflySpecifically, MTT (5 mg/ml) was added into cells and incubated at culture condition for 3 hours, removed the medium carefully and dissolved formazan in DMSO, assay was used to assess the surviving cells and OD values were measured using Microplate Reader Manager (Bio Rad) at wavelengths of 570/690 nm. For trypan blue exclusion assay, cells were washed in PBS for three times, and dyed in 0.4% tyrpan blue solution. Unstained viable cells were counted in hemocytometer chamber under microscope. Each experiment was performed three times independently.
(§2) To determine if piRNA-Ls play a role in chemo-sensitivity, we first selected 11 piRNA-Ls differentially expressed between NSCLC and HBE cells (Mei Y, Wang Y, Kumari P, et al. A piRNA-like small RNA interacts with and modulates p-ERM proteins in human somatic cells. Nat Commun 6, 7316. doi: 10.1038/ncomms8316 (2015)) and analyzed the relationship between the expression levels and the sensitivities to chemotherapeutic agents commonly used clinically for patients with NSCLC. We established doses of 50% inhibitory concentration (IC50) for CDDP, gemcitabine, and docetaxel in 4 SCC and 4 ADC cell lines based on 3-(4,5-dimethylthiazol-2-yl)-2,5-diphenyltetrazolium bromide (MTT) assay (Table 4). We then measured expression levels of the 11 selected piRNA-Ls using real-time RT-PCR before and 24 h after treatment with both IC50 (H) and IC25 (L) doses for each of the agents. […] Impact of gemcitabine and docetaxel in piR-L-138 expression was also determined in these NSCLC cell lines (FIG. 19). As CDDP is the backbone agent to treat patients with NSCLC, we selected CDDP as the representative agent to further determine the role of piR-L-138 in SCC cells' response to chemotherapy.

H157 = assay: MTT assay, IC50 of CDDP in NSCLC cell lines; type: cell-based, Human
Protocol: as §1, §2

H1792 = assay: MTT assay, IC50 of CDDP in NSCLC cell lines; type: cell-based, Human
Protocol: as §1, §2

H1944 = assay: MTT assay, IC50 of CDDP in NSCLC cell lines; type: cell-based, Human
Protocol: as §1, §2

H226 = assay: MTT assay, IC50 of CDDP in NSCLC cell lines; type: cell-based, Human
Protocol: as §1, §2

H522 = assay: MTT assay, IC50 of CDDP in NSCLC cell lines; type: cell-based, Human
Protocol: as §1, §2

H596 = assay: MTT assay, IC50 of CDDP in NSCLC cell lines; type: cell-based, Human
Protocol: as §1, §2

SKMES-1 = assay: MTT assay, IC50 of CDDP in NSCLC cell lines; type: cell-based, Human; details: SKMES-1, MTT assay
Protocol: as §1, §2

piR-L-138 [1] = assay: piR-L-138 expression by real-time RT-PCR after chemotherapeutic agent, SCC cell lines; type: cell-based, human; details: all SCC cell lines, 24 h after treatment
From the text: as §2

piR-L-138 [2] = assay: piR-L-138 expression by real-time RT-PCR after chemotherapeutic agent, ADC cell lines; type: cell-based, human; details: 24 h after treatment
From the text: as §2

[NH2][Pt]([NH2])([Cl])[Cl] [CDDP, cisplatin]
IC50 (H1437): 50 µM
IC50 (H157): 80 µM
IC50 (H1792): 50 µM
IC50 (H1944): 100 µM
IC50 (H226): 40 µM
IC50 (H522): 45 µM
IC50 (H596): 30 µM
IC50 (SKMES-1): 10 µM
piR-L-138 levels (piR-L-138 [1]): consistent and substantial increase of piR-L-138 levels
piR-L-138 expression (piR-L-138 [2]): no or much smaller increase of piR-L-138 expression

— patent US10889812B2, “Short non-coding protein regulatory RNAs (sprRNAs) and methods of use” (University of Maryland, Baltimore, priority 2014, dated 2021)
